This note sets out measurements from patent publication US20050288283A1, “Topical formulations for treating allergic diseases” (Alcon, Inc., priority 2004, published 2005).

The target of one series is T1, H1 histamine receptor (Cavia porcellus, UniProt P31389).
T1 construct: tissue Pel-Freez (Rogers, Ark.); host or cells: guinea pig forebrain homogenate (washed membranes)
As to the kind of experiment: Histamine receptor radioligand binding in washed rodent brain homogenates ([3H]pyrilamine). Conditions: 23° C. for 40 min. The arrangement: species or system guinea pig. On the procedure:
Histamine receptor binding was conducted in washed rodent brain homogenates. Briefly, guinea pig forebrains (for H1 and H2 receptors) and rat forebrains (for H3 receptor), obtained from Pel-Freez (Rogers, Ark.) were homogenized in 20 ml ice-cold phosphate buffered saline (PBS; pH 7.4) using a Polytron tissue disrupter (setting 5-7 for 10 sec) and centrifuged at 40,000 g for 15 min on a Beckman J2-MC centrifuge. The supernatants were discarded, the tissue pellets re-homogenized in fresh PBS buffer and centrifuged as described above. The final pellets were dispersed in 50 mM sodium potassium phosphate buffer (pH 7.5) and kept frozen at −40° C. until used in the binding assays.
The H1 histamine receptor binding assays were performed according to previously published methods with minor modifications (Chang, R. S. L., Tran, V. T., and Snyder, S. H. J. Neurochem., 32:1653-1663, 1979, Hill, S. J., Young, J. M., and Marrian, D. H. Nature, 270:361-363, 1977, Gajtkowski, G. A., Norris, D. B., Rising, T. J., and Wood, T. P. Nature, 304:65-67,1983, Korte, A., Myers, J., Shih, N.-Y., Egan, R. W., and Clark, M. A. Biochem. Biophys. Res. Comm., 168:979-986, 1990 . Briefly, 50 μl of [3H]pyrilamine (1-2 nM); 24 Ci/mmol from NEN, Boston, Mass.), [3H]tiotidine (4-5 nM; 87 Ci/mmol from NEN, Boston, Mass.) or [3H]N-methyl histamine (1-2 nM; 84 Ci/mmol from NEN, Boston, Mass.) were incubated with 200 μl of 2.5-4.0 mg/ml of frozen-thawed brain homogenates in the presence or absence of unlabeled test compounds (50 μl; 10 pM-100 μM) in a total volume of 500 μl in polypropylene tubes. The non-specific binding was determined with 5 mM histamine. Drug dilutions and dispensing of assay components were performed using a computer-controlled automated system (Biomek; Beckman, Fullerton, Calif.). The assays were conducted at 23° C. for 40 min and then terminated by rapid filtration over Whatman GF/B glass fiber filters presoaked in 0.3% polyethyleneimine using a Tomtec cell harvester (Gaithersburg, Md.). The assay tubes were rinsed with 2×6 ml of ice-cold 50 mM TrisHCl buffer (pH 7.4). The filter-bound radioactivity was determined on a Wallac Beta-plate (Gaithersburg, Md.) solid scintillation counter at 40-50% efficiency. The competition binding data were analyzed using an iterative curve-fitting computer program as previously described Michel, A. D. and Whiting, R. L. Brit. J. Pharmacol., 83:460p, 1984, Sharif, N. A., Wong, E. H. F., Loury, D., Stefanich, E., Eglen, R. M., Michel, A. D., and Whiting, R. L. Brit. J. Pharmacol., 102:919-925, 1991,. The drug affinities (dissociation constants, Kis) were calculated according to the Cheng-Prussof equation (Cheng, Y.-C. and Prusoff, W. H. Biochem. Pharmacol., 22:3099-3018, 1973 ): Ki=IC50/(1+L/Kd) where IC50 is the concentration of the drug needed to produce 50% inhibition of the receptor binding, L is the radioligand concentration in the assay and Kd is the dissociation constant of the radioligand.

The subject of series [1] is Histamine induced vascular permeability in guinea pig conjunctiva. As to the kind of experiment: Histamine induced vascular permeability in guinea pig conjunctiva. The format is in vivo. The conditions noted are these: topical 20 μl onto eye, 30 min before subconjunctival histamine. As to the method:
Male Dunkin Hartley Viral Antibody Free out bread guinea pigs (Charles River Labs, Portage, Mich.), 250-350 grams, (6/group) were injected intravenously (i.v.) via the marginal ear vein with 1.0 ml of Evans Blue dye (1.0 mg/ml). Forty-five (45) min post dye injection, 20 μl of test compound or vehicle was applied topically onto one eye of each experimental animal. Thirty (30) min following topical drug application, guinea pigs were anesthetized and challenged subconjunctivally with histamine (300 ng/10 μl). Responses were quantitated as previously described by Yanni, J. M., Weimer, L. K., Glaser, R. K., Lang, L. S., Robertson, S. M., and Spellman, J. M. Int. Arch. Allergy Immunol. 101:102-106, 1993

The test system of series [2] is human conjunctival tissue mast cells. As to the kind of experiment: Histamine release from human conjunctival mast cells (anti-human IgE challenge). It counts as cell-based. The conditions noted are these: Mast cell; goat-anti-human IgE 10 μg/mL challenge 15 min, after 1 or 15 minutes drug treatment; read-out: Human Conjunctiva Mast Cell Histamine Release IC50. On the procedure: Methods detailing preparation of monodispersed human conjunctival tissue mast cell and mediator release studies with these cells have been described (Miller et al. 1996). Briefly, human conjunctival tissue mast cells were isolated from post-mortem tissue donors obtained within 8 hours of death by various eye banks and transported in Optisol® corneal preservation medium. Tissues were enzymatically digested by repeated exposure (30 min. at 37° C.) to collagenase and hyaluronidase (2× with 200 U each/gm tissue, then 2-4× with 2000 U each/gm tissue) in Tyrode's buffer containing 0.1% gelatin. Each digestion mixture was filtered over Nitex® cloth (100 μm mesh) and washed with an equal volume of buffer. Filtrates were centrifuged at 825×g (7 min). Pellets were resuspended in buffer then combined for enrichment over a […] Percoll® cushion. The enriched pellet was washed and resuspended in supplemented RPMI 1640 medium for equilibration at 37° C.
Cells were harvested from the culture plate and counted for viability (trypan blue exclusion) and mast cell number (toluidine blue 0). Mast cells (5000/tube; 1 mL final volume) were challenged (37° C.) for 15 min with goat-anti-human IgE (10 μg/mL) following treatment (1 or 15 minutes; 37° C.) with test drug or Tyrode's buffer. Total and non-specific release controls were exposed to 0.1% Triton X-100 and goat IgG (10 μg/mL), respectively. The reaction was terminated by centrifugation (500×g, 4° C., 10 min). Supernatants were stored at −20° C. until analyzed for histamine content by R I A Miller, S. et al., Ocular Immunology and Inflammation 4(1): 39-49 (1996).

The mark [3] stands for this setting: % inhibition at concentration 0.1%.
Setting [4] is: % inhibition at concentration 0.01%.

SMILES strings stand for the structures. Structures can show the parent of a compound that is named as a salt.

T1 sequence (P31389 whole entry): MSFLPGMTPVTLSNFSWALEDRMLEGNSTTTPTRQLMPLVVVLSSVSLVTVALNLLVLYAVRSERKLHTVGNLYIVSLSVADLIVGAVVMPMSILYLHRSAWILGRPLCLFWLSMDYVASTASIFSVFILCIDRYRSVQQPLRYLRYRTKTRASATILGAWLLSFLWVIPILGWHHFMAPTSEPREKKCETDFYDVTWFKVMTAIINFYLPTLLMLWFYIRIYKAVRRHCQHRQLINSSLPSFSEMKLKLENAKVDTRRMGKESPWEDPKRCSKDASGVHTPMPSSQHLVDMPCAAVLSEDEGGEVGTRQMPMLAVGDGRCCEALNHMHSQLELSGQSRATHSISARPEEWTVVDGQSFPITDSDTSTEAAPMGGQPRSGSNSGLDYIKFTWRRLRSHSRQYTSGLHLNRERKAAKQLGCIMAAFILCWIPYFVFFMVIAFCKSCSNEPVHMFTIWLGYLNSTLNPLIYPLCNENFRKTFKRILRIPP

As usually defined, the IC50 is the concentration needed to halve the response being measured. In the case of `CN(C)CC/C=C1/c2ccccc2COc2ccc(CC(N)=O)cc21` [Example 3, 2-[11Z-(3-Dimethylaminopropylidene)-6,11-dihydrodibenzo[b,e]oxepin-2-yl]acetamide], the IC50 came out at 0.0022 µM on H1 histamine receptor and 480 µM in series [2]. The “Histamine Induced Vascular Permeability ED50 or [Concentration] and (% inhibition)” value in series [1] (% inhibition at concentration printed as 0.018 (no % sign)) is given as 0.018 (59%).
On to `CC(=O)NCCc1ccc2c(c1)/C(=C\CCN(C)C)c1ccccc1CO2` [Example 10, N-[2-[11-(3-Dimethylaminoprop-(Z)-ylidene)-6,11-dihydrodibenzo[b,e]-oxepin-2-yl]ethyl}-acetamide], for which the results for the IC50 (on H1 histamine receptor; in series [2]) were 0.054 µM and 13 µM, respectively. Besides, in series [1] (setting [3]), the “Histamine Induced Vascular Permeability ED50 or [Concentration] and (% inhibition)” value was 0.1% (41%).
`CN(C)CC/C=C1/c2ccccc2COc2ccc(CC(=O)NCCO)cc21` [Example 5, 2-[11Z-(3-Dimethylaminopropylidene)-6,11-dihydrodibenzo[b,e]oxepin-2-yl]-N-(2-hydroxyethyl)acetamide]: the IC50 at H1 histamine receptor was 0.0013 µM; in series [2] it was 770 µM. The “Histamine Induced Vascular Permeability ED50 or [Concentration] and (% inhibition)” value in series [1] (setting [4]) is listed as 0.01% (43%).
Regarding `CN(C)CC/C=C1/c2ccccc2COc2ccc(CC(=O)NC[C@@H]3CCCO3)cc21` [Example 1, (S)-2-{11-[3-Dimethylamino-prop-(Z)-ylidene]-6,11-dihydro-dibenz[b,e]-oxepin-2-yl}-N-tetrahydro-furan-2-ylmethyl)acetamide fumaric acid salt], the IC50 in series [2] came to 61 µM.
`CN(C)CC/C=C1/c2ccccc2COc2ccc(CC(=O)N(C)C)cc21` [Example 6, 2-[11Z-(3-Dimethylaminopropylidene)-6,11-dihydrodibenzo[b,e]oxepin-2-yl]-N,N-dimethylacetamide]: the values for the 50% inhibitory concentration (IC50) (at H1 histamine receptor; in series [2]) were 0.0026 µM and 400 µM, respectively. In addition, in series [1] (setting [4]), the “Histamine Induced Vascular Permeability ED50 or [Concentration] and (% inhibition)” value was 0.01% (56%).
As to `CN(C)CC/C=C1/c2ccccc2COc2ccc(CCN)cc21` [Example 8, {3-[2-(2-Aminoethyl)-6H-dibenzo[b,e]oxepin-11-ylidene]propyl}-dimethylamine], the “Histamine Induced Vascular Permeability ED50 or [Concentration] and (% inhibition)” value in series [1] (setting [3]) is listed as 0.1% (32%). For the same molecule, the 50% inhibitory concentration (IC50) in series [2] is 2 µM.
Regarding `CCN(CC)CCC1CCN(C(=O)Cc2ccc3c(c2)/C(=C\CCN(C)C)c2ccccc2CO3)CC1` [Example 2, 1-[4-(2-Diethylamino-ethyl)-piperidin-1-yl]-2-{11-[3-dimethylamino-prop-(Z)-ylidene]-6,11-dihydro-dibenz[b,e]oxepin-2-yl}-ethanone fumaric acid salt], the concentration for half-maximal inhibition (IC50) in series [2] worked out at 2 µM.
On to `CNC(=O)Cc1ccc2c(c1)/C(=C\CCN(C)C)c1ccccc1CO2` [Example 4, 2-[11Z-(3-Dimethylaminopropylidene)-6,11-dihydrodibenzo[b,e]oxepin-2-yl]-N-methylacetamide], for which the half-inhibitory concentration (IC50) on H1 histamine receptor worked out at 0.0026 µM; in series [2], 220 µM. Moreover, the “Histamine Induced Vascular Permeability ED50 or [Concentration] and (% inhibition)” value in series [1] (setting [3]) is 0.1% (55%).
Consider `CN(C)CC/C=C1/c2ccccc2COc2ccc(CCNS(C)(=O)=O)cc21` [Example 9, N-{2-[11-(3-Dimethylaminoprop-(Z)-ylidene)-6,11-dihydrodibenzo[b,e]-oxepin-2-yl]ethyl}-methanesulfonamide], for which the IC50 at H1 histamine receptor is 0.127 µM; in series [2] it was 15 µM. Moreover, the “Histamine Induced Vascular Permeability ED50 or [Concentration] and (% inhibition)” value in series [1] (% inhibition at concentration 0.018%) is given as 0.018% (74%).
By melting point is commonly meant the temperature, or range, at which the solid turns liquid. Consider `CCN(CC)CCC1CCN(CCc2ccc3c(c2)/C(=C\CCN(C)C)c2ccccc2CO3)CC1` (as salt: fumaric acid salt) [Example 7, {3-[2-{2-[4-(2-Diethylamino-ethyl)-piperidin-1-yl]-ethyl}-6H-6,11-dibenz[b,e]oxepin-(11Z)-ylidene]-propyl}-dimethylamine fumaric acid salt], for which the melting point was 65 to 67 °C.
In the case of `CN1CCC(=C2c3ccccc3COc3ccc(OCC(=O)O)cc32)CC1` [Example 11, [11-(1-Methylpiperidin-4-ylidene)-6,11-dihydrodibenzo[b,e]oxepin-2-yloxy]acetic acid hydrochloride], the IC50 in series [2] was 220 µM.
